For data set [1], the system named is rat livers. The experiment in a line: Ischemia/reperfusion in rat liver perfusion system, removal of lactate, comparison with known protective compounds. The following applies: 5 mg added to the perfusate before ischemia; FIG. 3. The method, then: A third experiment was carried out, wherein rat livers were taken out and were subjected to perfusion in a heart/lung machine. The perfusion solution is blood with an implanted liver. When the system has reached equilibrium the perfusion flow is shut off and 10 to 20 minutes later the perfusion flow is turned on again, which is called reperfusion (ischemia). A known toxic effect of reperfusion (ischemia/infarction)(tissue damage due to oxidative stress) is the reduced capacity to remove lactate from the perfusate.

The subject of data set [2] is rat livers. The experiment in a line: TPA toxicity in rat liver perfusion, lactate and bile flow. As for the experimental part: (§1) A series of experiments were carried out with rat livers in a heart/lung machine (FIGS. 4 and 5).
(§2) Lactate was added to a control liver perfusion and the bile flow and the lactate level were measured as a function of time. Bile flow is the clinical parameter for liver function, the higher bile flow the better liver function. The results from controls are shown in the upper diagrams of FIGS. 4 and 5. A normal liver down-regulates the lactate very rapidly to in vivo levels (3-5 mM). The normal bile flow in controls is represented by the dotted line.
In the next experiment (FIG. 5) a very toxic compound, triphorbolester (TPA) was added to the perfusion fluid. TPA is an inducer of inflammation and a very potent tumour promoter.
Then the same experiment was repeated under the same conditions except that 2 mg B220 also was added to the perfusion. From said results it can be seen that when B220 is present in the system the toxic effects of TPA were prevented and the values of lactate and bile flow were restored (and even better as compared to the controls in FIG. 5, upper diagram). […] The mode of action resides in a blocking of hyperplasia/inflammation.

Data set [3] deals with rat livers. The experiment in a line: Reperfusion (10 min shut-off) of rat liver in heart/lung machine, lactate and bile flow over time. The settings on record: 2 mg B220 in the system, FIG. 4 lower diagram. As for the experimental part: as §1, §2
In the next experiment a heart/lung machine was shut off for 10 minutes and then it was started again to induce oxidative stress (reperfusion). The amount of lactate, which is a measurement of tissue damage, was determined as a function of time and the bile flow as a function of time was also determined as an indicator of toxic effect. The results are shown in FIG. 4, middle diagram, indicating a high level of lactate (solid curve) and a reduced bile flow (dotted curve) after reperfusion. Both these effects are markers for tissue damage.
In the next experiment the same reperfusion experiment was carried out with B220 present in the system in an amount of 2 mg.

A short description of data set [4]: Toxicity in vivo (general statement).
Data set [5] in a line: Long time in vivo experiments on tumour promoter effect of TPA.
The next data set relates to rats. Kind of data set: In vivo test of rats with 2,7-dNF, livers analysed for 8-OH-dG. Also noted: species or system rat. The settings on record: oral in corn oil, B220 at −48 h, −24 h and +6 h relative to 2,7-dNF dose; FIG. 2. The method, then:
In another experiment rats were tested in vivo and the livers analyzed for 8-OH-dG. In this experiment there were three test groups. One control group, one group to which 2,7-dinitrofluorene (2,7-dNF), which is a well-known carcinogen found in diesel exhaust and inducer of 8-OH-dG, was orally administered and one group to which both 2,7-dNF and a compound to be used as an agent according to the present invention (B220) were administered. B220 was administered at three time points in relation to the 2,7-dNF dose, viz. −48 h, −24 h and +6 h. All doses were administered orally with the substance in corn oil. Control only received carrier. Oxidation of DNA (oxidation of guanine, 8-OH-dG) was measured in the liver. 8-OH-dG is a promutagenic event correlated to several different types of diseases, for instance cancer, diabetes and infectious diseases.
The results of the experiment can be seen from the enclosed FIG. 2.

Data set [6] concerns rat liver. The experiment in a line: Donor pretreatment, liver stored 2 h at +30° C. then isolated perfusion, total bile flow. Format: in vivo. The settings on record: single dose B220 i.p. to donor 24 h prior to surgery; liver 2 h at +30° C.; FIG. 6. As for the experimental part: In a further experiment rat liver was tested in isolated perfusion where B220 was administered to the donor. The donors were administered a single dose of B220 24 h before the livers were surgically removed and kept at +30° C. for 2 h before set into perfusion (group 3). (There was a “short” storage (2 h) of rat liver at a high temperature (+30° C.) in order to simulate transplantation). The second group was not administered B220 and the first group was controls directly set into perfusion. […] “Transport” and reperfusion gives a massive oxidative stress which leads to tissue damage.
In FIG. 6 the total bile flow was an indicator of tissue damage induced by transplantation. The controls were directly “transplanted” to the perfusion system while the second group of livers was kept for 2 h at 30° C. before “transplantation”. The third group represents the 2 h at 30° C. treatment but with addition of B220 to the donors.

In data set [7] the test system is rat liver. Kind of data set: Donor pretreatment, liver stored 24 h at +4° C. then isolated perfusion, bile flow and lactate. Format: in vivo. The settings on record: pretreatment of B220 to the donor. The method, then: The same experiment was repeated but instead the temperature applied during transport of human livers(+4° C.) was used. The livers were stored for 24 h before installation in the perfusion system. This should be compared to 12 h which is the maximum for human liver transplantation. […] The experiment was identical to what is shown in FIG. 6 except for time and temperature used.

The mark [8] stands for this setting: TPA alone added to the perfusion fluid, FIG. 5 middle diagram.
The mark [9] stands for this setting: 2 mg B220 added together with TPA, FIG. 5 lower diagram.

“Also recorded” adds a separate entry of the source.

Protocol for liver from rat: In order to investigate the agents to be used in transplantation according to the present invention a liver from rat was tested in a perfusion solution in a heart/lung machine. In order to measure organ damage the amount of 8-OH-dG in the liver was analysed. As an inducer of 8-OH-dG dimethylsulphoxide (DMSO) was added to a perfusion solution.

As to `CC(=O)Oc1ccccc1C(=O)O` [ASA, acetyl salicylic acid], the “reduction of lactate in perfusate after ischemia (protection)” value in the data set on rat livers [1] is listed as “did not give any protective effects”.

On to `CCCCCCCCCCCCCC(=O)O[C@@H]1[C@@H](C)[C@@]2(O)[C@@H](C=C(CO)C[C@]3(O)C(=O)C(C)=C[C@@H]23)[C@@H]2C(C)(C)[C@]12OC(C)=O` [TPA, triphorbolester, reference compound], for which, in the data set with rat livers [2] (setting [8]), the “capacity to produce bile” value is on record as “very restricted capacity to produce bile” and the “capacity to reduce lactate” value is on record as “very limited capacity to reduce lactate”.

Turning to `C[S+](C)[O-]` [DMSO, dimethylsulphoxide, reference compound], the “8-OH-dG in the liver” value in the data set with liver from rat is “significant increase of 8-OH-dG”.

Consider `Cc1cc2nc3c4ccccc4n(CCN(C)C)c3nc2cc1C` [B220], for which, in the data set with rat livers [3], the “bile flow as a function of time after reperfusion” value is reported as “rapidly accommodate to normal values; also recorded: better than in the controls” and the “lactate amount as a function of time after reperfusion” value was “rapidly accommodate to normal values; also recorded: better than in the controls”. Also, the toxicity entry in data set [4] is on record as “practically non-toxic”. Further, the “tumour promoter effect of TPA” value in data set [5] was “can stop the very potent tumour promoter effect of TPA”. Moreover, the “8-OH-dG in the liver (oxidation of DNA)” value in the data set with rats is recorded as “protects against 2,7-dNF-induced formation of 8-OH-dG; also recorded: reduces 8-OH-dG to below the control values”. Also, in the data set on rat livers [2] (setting [9]), the “bile flow with TPA in perfusion” value is “restored” and the “lactate with TPA in perfusion” value was “restored”. For the same compound, the “reduction of lactate in perfusate after ischemia (protection)” value in the data set on rat livers [1] was “significant reduction of lactate; also recorded: statistically significant protection”. Moreover, the “total bile flow during the perfusion” value in the data set on rat liver [6] was “the toxic effects are eliminated; also recorded: completely restored the bile flow value to that of the control samples”. Further, in the data set on rat liver [7] (FIG. 7), the bile flow entry is recorded as “the bile flow was restored”. Besides, the lactate levels result in the data set with rat liver [7] (FIG. 8) is given as “same protective effect on lactate levels”.

The record behind these values is patent US6472395B1, “Agent for use in transplantation” (Leif J. I. Lundblad, priority 1999, dated 2002).
